Test system: diabetic wound
Assay: Effect of treating diabetic wound (Test Example 9)
Assay type: in vivo
Conditions: diabetes-induced mouse
Protocol: 3-week-old male C57BL/6N mice (Koatech, South Korea) were used. After accustoming the mice for a week to normal feed, high-fat diet (Product Data—D12492; 60% kcal, hereinafter referred to as HFD) was given for 4 weeks. Then, a diabetes-induced animal model was prepared by intraperitoneally injecting 40 mg/kg streptozocin (Sigma) once daily for a week. The mice were kept in cages maintained at constant temperature (22±2° C.) and relative humidity (40-60%) with light/dark cycles of 12/12 hours.
6 mice of the normal control group and 6 mice per test group of the diabetes-induced animal model of Test Example 7 were prepared. The hair on the back was removed and a 0.8×0.8 cm^2 wound was made on the hair-removed region.
For the normal control group, only 20 μL of an emulsion solution (Kollipore®EL:Tween 80:PEG 400 at a mixing weight ratio of 80:6:14) was applied to the wound site once daily for 14 days. For the negative control group, only 20 μL of the emulsion solution (Kollipore®EL:Tween 80:PEG 400 at a mixing weight ratio of 80:6:14) was applied to the wound site once daily for 14 days. For the positive control group (VPA), 20 μL of a composition prepared by mixing 500 mM VPA in an emulsion solution was applied to the wound site once daily for 14 days.
For the first test group, 20 μL of A3334 (Example 1) was applied to the wound site once daily for 14 days. For the second test group, 20 μL of A3051 (Example 2) was applied to the wound site once daily for 14 days. Then, the wound site of each group was photographed and the wound area was measured (FIG. 14). On day 14, after euthanizing the mouse with carbon dioxide, the wound site tissue was harvested and the histological structure was observed.
Specifically, the wound site tissue obtained from the normal control group, the negative control group, the positive control group or the first or second test group was fixed by immersing in 4% paraformaldehyde, embedded in paraffin and then sliced into 4 μm thickness. The sliced tissue was deparaffinized, rehydrated and then stained with hematoxylin (purple) and eosin (pink) for observation of histological structure.
Specifically, the wound site tissue obtained from the normal control group, the negative control group, the positive control group or the first or second test group was fixed by immersing in 4% paraformaldehyde, embedded in paraffin and then sliced into 4 μm thickness. The sliced tissue was deparaffinized, rehydrated and then stained with Van Gieson's stain and Masson's trichrome for observation of histological structure. For the Van Gieson's staining, the sliced tissue was immersed in Weigert's solution for 10 minutes and in picrofuchsin solution for 2 minutes. For the Masson's trichrome staining, the sliced tissue was immersed in Weigert's iron hematoxylin solution for 10 minutes and in Biebrich scarlet-acid fuchsin and Aniline blue for 5 minutes each.
Specifically, the wound site tissue obtained from the normal control group, the negative control group, the positive control group or the first and second test groups was fixed by immersing in 4% paraformaldehyde and angiogenesis was observed.

COc1ccc2c(c1)/C(=C1/Nc3ccccc3/C1=N\O)C(=O)N2 [Example 1, 5-methoxylindirubin-3′-oxime]
angiogenesis around the wound site: increased angiogenesis
healing of the wound site (0.8×0.8 cm^2 wound, 20 μL once daily for 14 days, VPA 500 mM): healing of the wound site was promoted similarly to the normal control group
re-epithelialization (H&E) (14 days): re-epithelialization occurred quickly
collagen synthesis (Van Gieson's stain, Masson's trichrome) (vs normal, negative and positive control group (VPA)): increased collagen synthesis

Reference: patent publication US11773081B2, “Pharmaceutical composition for preventing or treating wound, comprising indirubin derivative as active ingredient” (CK Regeon Inc., priority 2018, dated 2023)
